Results from PubChem BioAssay (NCI).
Values joined by “and” are separate entries in the source; they are usually repeats but may differ in a detail not shown here. Equal values may be shown once.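 The compound was tested at five concentrations on cells cultured in 96-well plates, with a 48-hour exposure period. GI50 = concentration required for 50% inhibition of growth. TGI: concentration producing complete growth inhibition.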

Tests used:
Assay in all cases: NCI tumour cell line growth inhibition, 48 h
SK-MEL-5 melanoma = tested on: SK-MEL-5 melanoma
COLO 205 colon = tested on: COLO 205 colon
NCI-H226 lung = tested on: NCI-H226 lung
KM20L2 colon = tested on: KM20L2 colon
HOP-92 NSCLC = tested on: HOP-92 NSCLC
SK-MEL-2 melanoma = tested on: SK-MEL-2 melanoma
HCC-2998 colon = tested on: HCC-2998 colon
SF-268 CNS = tested on: SF-268 CNS
MALME-3M melanoma = tested on: MALME-3M melanoma
TK-10 renal = tested on: TK-10 renal

Row | Structure (SMILES) | TGI (SK-MEL-5 melanoma) | TGI (COLO 205 colon) | TGI (NCI-H226 lung) | TGI (KM20L2 colon) | TGI (HOP-92 NSCLC) | TGI (SK-MEL-2 melanoma) | TGI (HCC-2998 colon) | TGI (SF-268 CNS) | TGI (MALME-3M melanoma) | TGI (TK-10 renal) | GI50 (SK-MEL-5 melanoma) | GI50 (COLO 205 colon) | GI50 (NCI-H226 lung) | GI50 (HOP-92 NSCLC) | GI50 (SK-MEL-2 melanoma) | GI50 (HCC-2998 colon) | GI50 (SF-268 CNS) | GI50 (MALME-3M melanoma) | GI50 (KM20L2 colon)
1 | CSc1nc2c(ncn2C2OCC(O)C(O)C2O)c(=O)[nH]1 (stereo not given) | > 100 µM | > 100 µM | > 100 µM | > 100 µM | > 100 µM | > 100 µM | > 100 µM | > 100 µM | > 100 µM |  |  |  |  |  |  |  |  |  | 
2 | COc1cc2cc3c4c(cc(OC)c(OC)c4c2cc1OC)CCN3C(=O)OCCBr | > 100 µM | > 100 µM | 2.42 µM | > 100 µM | > 100 µM | > 100 µM | > 100 µM | > 100 µM | > 100 µM | > 100 µM |  |  |  |  |  |  |  |  | 
3 | C=C1C(=O)C[C@@]23CCC[C@@]12CC(O)C3 (stereo not given in full) | > 39.5 µM | 41.1 µM | 45.8 µM | 47.9 µM | 42.1 µM | 73.2 µM | > 62.1 µM | > 100 µM | 18.3 µM |  |  |  |  |  |  |  |  |  | 
4 | COc1ccc(CC2C(=O)NC(C)C(=O)N(C)C3Cc4ccc(cc4)Oc4cc(ccc4O)CC(C(=O)NC(C)C(=O)NC(C)C(=O)N2C)N(C)C3=O)cc1 (stereo not given) | 0.0532 µM and 0.127 µM and 0.0679 µM | 0.0745 µM | 0.624 µM | 0.49 µM | 0.000866 µM |  | 0.0168 µM and 0.0292 µM |  |  | 0.979 µM and 0.21 µM | 0.00102 µM | 0.000278 µM | 0.00929 µM | 0.000108 µM | < 0.0001 µM | < 0.0001 µM | < 0.0001 µM | < 0.0001 µM | 
5 | COC(=O)C1(Cc2ccccc2)Cc2ccccc2C1=O (stereo not given) | 44 µM | > 100 µM | > 100 µM |  | > 100 µM | 65.5 µM | > 100 µM | > 100 µM | 39.3 µM | > 100 µM |  |  |  |  |  |  |  |  | 
6 | NC(CO)c1ccccc1 (stereo not given) | > 100 µM |  | > 100 µM | > 100 µM | > 100 µM | > 100 µM | > 100 µM | > 100 µM | > 100 µM | > 100 µM |  |  |  |  |  |  |  |  | 
7 | CN(C)CCNc1nc2ccccc2c2c1C(=O)c1ccccc1-2 | 1.92 µM | 2.23 µM | 0.862 µM |  | 3.07 µM | 1.55 µM | 0.511 µM | 2.4 µM | 1.12 µM | 10.5 µM |  |  |  |  |  |  |  |  | 
8 | C=CCOn1c(C=C)nc2c(C)cccc21 | 12.7 µM | 3.6 µM | 16.9 µM |  | 34.4 µM | 4.79 µM | 17.8 µM | 26.5 µM | 28 µM | 8.05 µM |  |  |  |  |  |  |  |  | 
9 | CC1=CC(c2ccccc2)n2c(nc3cc4ccccc4cc32)N1 (stereo not given) | > 100 µM | > 100 µM | > 100 µM |  | > 100 µM | > 100 µM | > 100 µM | > 100 µM | > 100 µM | > 100 µM |  |  |  |  |  |  |  |  | 
10 | O=C(NCCCCl)c1c(O)c2ccccc2[nH]c1=O | > 100 µM | > 100 µM | > 100 µM |  | > 75.7 µM | > 100 µM | > 100 µM | > 100 µM | > 100 µM | > 100 µM |  |  |  |  |  |  |  |  | 
11 | COc1cc(C2S/C(=C/c3ccccc3)C(=O)N2c2ccc(Cl)cc2)cc(OC)c1OC (stereo not given) | > 100 µM | 5.68 µM | > 100 µM |  | > 52 µM | > 30.2 µM | > 100 µM | > 100 µM | 87.2 µM | > 100 µM |  |  |  |  |  |  |  |  | 
12 | CN(Cc1nc2c(N)nc(N)nc2nc1N)c1ccc(C(=O)NC(CCC(=O)O)C(=O)O)cc1 (stereo not given) | > 100 µM | > 100 µM | > 100 µM |  | > 100 µM | > 100 µM | > 100 µM | > 100 µM | > 100 µM | > 100 µM |  |  |  |  |  |  |  |  | 
13 | CNC(=O)OCC1=C(COC(=O)NC)CN(c2ccccc2)C1 | > 100 µM | > 100 µM | > 100 µM |  | > 100 µM | > 100 µM | > 100 µM | > 100 µM | > 100 µM | > 100 µM |  |  |  |  |  |  |  |  | 
14 | CC(=O)c1c(O)c(C)c(O)c2c1OC1=CC(=O)C(C(C)=O)C(=O)C12C (stereo not given) | 9.29 µM and 33.8 µM | 17.4 µM and 54.8 µM | 20.6 µM and 60.2 µM | 16.9 µM and 65.3 µM | 9.69 µM and 57.1 µM | 14.5 µM and 50.6 µM | 17.1 µM and 22.8 µM | 42.2 µM and 91.7 µM | 28.8 µM and 42.6 µM |  | 3.56 µM and 16.5 µM | 4.71 µM and 19.9 µM | 6.93 µM and 18.3 µM | 5.38 µM and 18.7 µM | 4.42 µM and 25.4 µM | 6.08 µM and 13.7 µM | 9.46 µM and 26.1 µM |  | 4.99 µM and 27 µM
15 | COc1ccc(C[C@H]2COC(=O)[C@@H]2Cc2cc(OC)c(OC)c(OC)c2)cc1OC | > 74.4 µM | > 100 µM | > 100 µM |  | > 100 µM | > 100 µM | > 100 µM | > 100 µM | > 100 µM | > 100 µM |  |  |  |  |  |  |  |  | 
16 | C=CCN1C(=O)/C(=C/c2ccc(Cl)cc2)N=C1SC1OC(COC(C)=O)C(OC(C)=O)C(OC(C)=O)C1OC(C)=O (stereo not given) | > 100 µM | > 100 µM | 24.5 µM and 78 µM |  | 66.5 µM and 31.4 µM | 34.6 µM and 95.8 µM | > 100 µM and 42.8 µM | 5.46 µM | 15 µM and > 100 µM | > 100 µM |  | > 89.5 µM and 31.9 µM | 9.63 µM and 21.9 µM | 22 µM and 3.62 µM | 12.6 µM and 30.1 µM | 49.7 µM and 18.9 µM |  |  | 
17 | CCN(CC)c1ccc(C(=C2C=CC(=[N+](CC)CC)C=C2)c2ccccc2)cc1 | 0.041 µM | 0.136 µM | 0.0683 µM | 0.117 µM | 0.0971 µM | 0.0889 µM | 0.135 µM | 0.195 µM | 0.0902 µM |  |  |  |  |  |  |  |  |  | 
18 | C[C@@H](C[C@@H](O)[C@H](O)C(C)(C)O)[C@H]1CC=C2[C@]3(C)[C@H](O)C[C@H]4C(C)(C)[C@H](O)CC[C@]4(C)[C@H]3CC[C@@]21C | 28.1 µM | 28.5 µM | 41.1 µM |  | 27.1 µM | 34.9 µM | 37.9 µM | 32.2 µM | 28 µM | 32.4 µM |  |  |  |  |  |  |  |  | 
19 | CN(C)CCNC(=O)c1cccc2c(NC(CS)C(=O)O)c3ccccc3nc12 (stereo not given) | 20 µM | 16 µM | 69.2 µM |  | > 100 µM | 27.7 µM | > 100 µM | 39.6 µM | 11.3 µM | > 100 µM |  |  |  |  |  |  |  |  | 
20 | C/C(=N\O)c1ccc(Nc2c3ccccc3nc3occc23)cc1 | 6.77 µM | 0.65 µM | > 25.9 µM |  | > 50 µM | 3.5 µM | 6.35 µM | > 43.9 µM | > 50 µM | 25.4 µM |  |  |  |  |  |  |  |  | 
